This note sets out measurements from patent US11192920B2, “Peptides for binding to CD44v6 and use thereof” (KYUNGPOOK NATIONAL UNIVERSITY INDUSTRY-ACADEMIC COOPERATION …, priority 2017, dated 2021).

One test deals with MDA-MB-231 tumor model. Kind of test: MDA-MB-231 lung metastasis model. The note with it: peptide i.v. 14.2 mg/g 3 times a week for 3 weeks; crizotinib oral 25 mg/kg; vs saline and control peptide. It counts as in vivo, mice. As for the experimental part: (§1) For animal models, 6-week-old to 8-week-old Balb/c female mice were purchased from Orient Bio. Mice were cared for and maintained in conformance with the Guidelines of the Institutional Animal Care and Use Committee (IACUC) of Kyungpook National University. Tumors were prepared by injecting 1×10^6 MDA-MB-231 cells via tail vein to develop lung metastatic model in Balb/c female nude mice and 1×10^6 4T1 cells into the lower left mammary fat pad of Balb/c wild type female mice.
(§2) Tumor-bearing mice were subjected to randomization and grouping when the size of the tumors reached approximately 100 mm^3. Each peptide was intravenously injected via the tail vein of mice ([…] of body weight, 3 times a week for 3 weeks). Crizotinib was given through orally (25 mg/kg of body weight, three times a week for 3 weeks) based on a previous study. Tumor size was measured using a digital caliper, and tumor volume was calculated using the following formula: Volume=(L×W×H)/2 (L: length, longest dimension, W: width, shorter dimension, parallel to the mouse body, and H: height, perpendicular to the length and width). Mice were checked for tumor ulceration. At the end of the treatment, the mice were sacrificed, and the lung and liver were isolated and checked for metastatic tumor masses.
MDA-MB231-luc cells (1×10^6 in 0.1 ml PBS) were injected into the lateral tail vein of female nude mice. The mice were then segregated into groups (n=10 per group) based on initial IVIS image. Starting from day 0, mice were administered CD44v6 peptides by intravenously injected via the tail vein of mice ([…] of body weight, 3 times a week for 3 weeks). After the last IVIS imaging, mice were euthanized and lung tissues were removed from each mouse for metastatic tumor masses immunohistochemical analyses.
(§3) At the end of the treatment, mouse blood was collected and hematological factors were analyzed by DGMIF (Daegu-Gyeongbuk Medical Innovation Foundation) (Daegu, Korea).
CD44v6 Peptides was stable without degradation for at least 24 hours in the presence of serum.

Another test relates to 4T1 tumor model. Kind of test: Anti-tumor therapy in 4T1 tumor model. It counts as in vivo, mice. The following applies: for tumor and metastatic growth (bioluminescence imaging): peptide i.v. 14.2 mg/kg thrice a week, crizotinib oral 25 mg/kg thrice a week, vs saline. As for the experimental part:
as §1, §2, §3
In vivo anti-tumor activity was further evaluated in 4T1 orthotopic mice models. In relevant with the biodistribution and pharmacokinetic results, in vivo therapy was started by administrating 14.2 mg/kg thrice a week via intravenous injection of CD44v6 peptides and 25 mg/kg crizotinib thrice a week orally.

The subject of test [1] is CD44 variant 6 expressing cells MDA-MB231, HELA, 4T1 and PANC-1. The note with it: CD44v6 expressing cells. As for the experimental part:
(§4) After complete adhesion, the cell culture medium was replaced with fresh medium containing FITC labeled peptides (10 μM) and then the cells were incubated at 37° C. for 1 h and cells were washed with PBS for 3-5 min (thrice) and stained with CD44v6 antibody (Santa cruz), followed by Alexa 594-labeled goat anti-mouse IgG secondary antibody.
(§5) To screen CD44v6-binding peptides, the present inventors first prepared HEK-293 cells transfected with CD44v6-GFP plasmid by transient transfection. […] Twenty phage clones were randomly picked from the third, fourth, and fifth rounds and the peptide-coding DNA inserts of the phage clones were sequenced.

In a further test the test system is MCF-7. The note with it: CD44v6 non-expressing cells. As for the experimental part: as §4, §5
In test [2] the test system is CD44v6 silenced MDA-MB-231 cells. The following applies: for binding of FITC labelled peptide after silencing of CD44v6 gene (flow cytometry): MDA-MB-231, CD44v6 siRNA; for binding of FITC labelled peptide after siRNA treatment (immunofluorescence staining): MDA-MB-231, siRNA 100 nmol. As for the experimental part:
Control siRNA (50-[…] (dTdT) 30) and glyceraldehyde-3 phosphate dehydrogenase (GAPDH) siRNA (50-[…] (dTdT)-30) were also purchased from Bioneer, Daejeon, Korea. The transfection was performed using Lipofectamine 2000 (Invitrogen, Karlsruhe, Germany). Two rounds of transfection with an interval of 24 h between were performed. 48 h after the first transfection the cells were serum-starved for 24 h and then subjected to further treatment.
MDA-MB-231 cells were serum-starved for 24 hours and then subjected to further treatment. SiRNAs v6-1 and v6-2 transfected and kept it for different time interval to achieve the CD44v6 expression inhibition.

The next test deals with CD44v6. The following applies: biotinylated peptide + avidin bead + cell lysate. As for the experimental part: (§6) Biotinylated CD44v6 peptides was incubated with monomer avidin magnetic beads (Bioclone Inc.) for 30-60 min at room temperature with gentle rotation to be used for peptide pulldown, prior to incubation with cell lysates. Cells were lysed using cell lysis reagent (Thermo scientific) with protease inhibitors. After the first incubation of biotinylated peptide+avidin bead (complex 1) were washed with PBS and complex is incubated with cell lysate for 30-60 min at room temperature with gentle rotation. Bound biotinylated peptide+avidin bead+cell lysate (complex 2) were eluted by 1× blocking buffer/elution buffer for 5-10 min incubation after elution and the elute was subjected to western blot analysis using CD44v6 antibody (Millipore) to pull down the specific protein.
(§7) Biotinylated peptide+avidin bead+cell lysate (complex 2) were eluted for western blot analysis using CD44v6 antibody to pull down the specific protein.

In a further test the target is wild-type CD44 (Homo sapiens, UniProt P16070). The note with it: biotinylated peptide + avidin bead + cell lysate. As for the experimental part:
as §6, §7

The next test concerns MDA-MB-231 cells. The following applies: MDA-MB-231, dose-dependent.
For test [3], the system named is c-Met and Erk phosphorylation in MDA-MB-231 cells. The following applies: MDA-MB-231, HGF 25-50 ng/mL; peptides 5 ug/ml each, combination 10 μg/ml.
Procedure: Serum-starved cells (24 hours) were induced with the growth factor HGF (25-50 ng/mL), at 37° C. for 10 min. Where indicated, the cells were treated with a CD44v6 specific peptide or a control peptide (50 μg/ml) at 37° C. for 10 min before induction and cells were washed with ice-cold phosphate-buffered saline (PBS). To detect activated Erk and activated c-Met, cells were lysed in boiling sodium dodecyl sulfate (SDS) sample buffer containing 100 mM dithiothreitol (DTT) and subjected to Western blot analysis using antibodies against phosphorylated Erk and phosphorylated c-Met. The loading control was performed on the same blot, stripped (62.5 mM Tris, pH 6.8, 2% SDS, 0.8% DTT), and probed with the Erk and c-Met antibodies. Blots were stained using the enhanced chemiluminescence system (Thermo Fisher Scientific). Bands in Western blot analysis were quantified with the program ImageJ (National Institutes of Health).
In the present invention, MDA-MB-231 and 4T1 cells were serum-starved (24 hours) and were induced with the growth factor HGF (25-50 ng/mL) at 37° C. for 10 min. The cells were treated with a CD44v6 specific peptide or a control peptide (100 ng/ml) at 37° C. for 10 min before induction. To detect activated Erk and activated c-Met, cells were lysed and subjected to Western blot analysis using antibodies against phosphorylated Erk and phosphorylated c-Met. […]
For another test, the system named is MDA-MB-231 xenograft. The following applies: anti-CD44v6 antibody staining.
The next test deals with 4T1 orthotopic mice. The following applies: anti-CD44v6 antibody staining.
Another test relates to c-Met. The following applies: biotinylated peptide + avidin bead + cell lysate.

CD44v6, sequence (P16070 386-428 limits assumed): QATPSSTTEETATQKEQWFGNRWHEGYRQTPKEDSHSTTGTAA
wild-type CD44, sequence (P16070 21-361 isoform P16070-12 limits assumed): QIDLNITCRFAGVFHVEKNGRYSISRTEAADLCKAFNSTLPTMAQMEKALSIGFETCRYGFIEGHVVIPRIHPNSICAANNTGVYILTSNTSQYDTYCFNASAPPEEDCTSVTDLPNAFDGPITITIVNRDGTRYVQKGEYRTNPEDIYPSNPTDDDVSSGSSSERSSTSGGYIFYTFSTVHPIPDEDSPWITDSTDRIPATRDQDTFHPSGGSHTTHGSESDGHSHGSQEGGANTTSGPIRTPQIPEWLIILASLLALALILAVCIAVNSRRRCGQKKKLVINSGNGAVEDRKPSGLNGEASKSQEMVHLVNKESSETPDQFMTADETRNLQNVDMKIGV
Procedure for 4T1 orthotopic mice: To analyze ex vivo organ distribution, animals were euthanized at 6 h post-injection with CO2. All major organs (liver, kidney, spleen, heart, and lung) along with tumor tissues were isolated and washed in PBS and ex vivo fluorescence images were taken using the IVIS Lumina III imaging system. Fluorescence intensity within the region of interest (ROI) of each organs was analyzed. Tumor tissues were further fixed with 4% paraformaldehyde overnight and rapidly frozen. Tissue slices (8-μm thick) were prepared using a cryo-microtome and stained with CD44v6 antibody (Santa Cruz), followed by Alexa 594-labeled goat anti-mouse IgG secondary antibody. […]
In vivo fluorescence images were taken before or after injection at various time points (1, 2, 4 and 6 h, respectively) with flamma 675 was injected at the same concentration and method. […]
Ex vivo fluorescence images of excised tumor and organs collected at 6 h post-injection. All major organs (liver, kidney, spleen, heart, and lung) along with tumor tissues were isolated and washed in PBS and ex vivo fluorescence images were taken (n=3) with FPR-675 fluorophore excitation at 675 nm and emission at 698 nm. Fluorescence intensity within the region of interest (ROI) of each organ was analyzed.
Procedure for MDA-MB-231 xenograft: Tumor tissues were further fixed with 4% paraformaldehyde overnight and rapidly frozen. Tissue slices (8-μm thick) were prepared using a cryo-microtome and stained with CD44v6 antibody (Santa Cruz), followed by Alexa 594-labeled goat anti-mouse IgG secondary antibody.

Take `C[C@@H](Oc1cc(-c2cnn(C3CCNCC3)c2)cnc1N)c1c(Cl)ccc(F)c1Cl` [crizotinib, reference compound]: in the test on MDA-MB-231 tumor model, the “metastasis (bioluminescence imaging)” value is “inhibited metastatic growth”. Moreover, in the test with 4T1 tumor model (4T1 bearing mice), the “tumor growth (tumor volume)” value is given as “Slight reduction of tumor volume”. Also, the “tumor and metastatic growth (bioluminescence imaging)” value (shortened to “tumor and metastatic growth”) with 4T1 tumor model was “slightly inhibited tumor and metastatic growth”.
CNEWQLKSC [v6Pep-2]: in test [1], the “binding to MDA-MB-231, 4T1 and PANC-1” value is recorded as “bind specifically”. The “binding to MCF-7” value in the test with MCF-7 is given as “did not show specific binding”. For the same compound, the “binding of FITC labelled peptide after silencing of CD44v6 gene (flow cytometry)” value in test [2] was “binding got inhibited”. Besides, the “binding of FITC labelled peptide after siRNA treatment (immunofluorescence staining)” value in test [2] is listed as “negligible binding”. In addition, the “pull down of CD44v6” value in the test with CD44v6 is “pulled down”. The “pull down of wild-type CD44” value at wild-type CD44 is listed as “not pulled down”. Moreover, in the test on MDA-MB-231 tumor model, the “metastasis (bioluminescence imaging)” value is given as “inhibited metastatic growth”. Besides, the “tumor and metastatic growth” value in the test on 4T1 tumor model was “slightly inhibited tumor and metastatic growth”. Also, the “binding of FITC labelled peptide after pre-treatment with anti-CD44v6 blocking antibody” value in the test with MDA-MB-231 cells is given as “significantly reduced the binding”; in the test on MCF-7 cells, “minimal effect”. Besides, the “phosphorylation of c-Met and its downstream target Erk” value in test [3] was “drastically reduced the phosphorylation”. In addition, the “immunohistochemical examination of tumor tissues” value with MDA-MB-231 xenograft and in the test with 4T1 orthotopic mice was “co-localized with CD44v6” in each case.
In the case of CNLNTIDTC [v6Pep-1], in test [1], the “binding to MDA-MB-231, 4T1 and PANC-1” value was “bind specifically”. Besides, the “binding to MCF-7” value in the test on MCF-7 is recorded as “did not show specific binding”. For the same compound, the “binding of FITC labelled peptide after silencing of CD44v6 gene (flow cytometry)” value in test [2] was “binding got inhibited”. Also, in test [2], the “binding of FITC labelled peptide after siRNA treatment (immunofluorescence staining)” value was “negligible binding”. Besides, in the test with CD44v6, the “pull down of CD44v6” value is reported as “pulled down”. The “pull down of wild-type CD44” value at wild-type CD44 is recorded as “not pulled down”. Besides, in the test with MDA-MB-231 tumor model, the “metastasis (bioluminescence imaging)” value is “inhibited metastatic growth”. In addition, the “tumor and metastatic growth” value in the test on 4T1 tumor model is “slightly inhibited tumor and metastatic growth”. The “binding of FITC labelled peptide after pre-treatment with anti-CD44v6 blocking antibody” value in the test with MDA-MB-231 cells is reported as “significantly reduced the binding”; with MCF-7 cells, “minimal effect”. Moreover, the “phosphorylation of c-Met and its downstream target Erk” value in [3] was “drastically reduced the phosphorylation”. Moreover, in the test on c-Met, the “pull down of c-Met” value is listed as “pulled down”. For the same compound, the “immunohistochemical examination of tumor tissues” value with MDA-MB-231 xenograft and with 4T1 orthotopic mice was “co-localized with CD44v6” throughout.
